Tests used:
[1] = target: human H3 receptors (Homo sapiens (Human), UniProt Q9Y5N1); assay: Potency assessment: blockade of (R)-alpha-methylhistamine-mediated cAMP production (LANCE Ultra cAMP kit); assay type: cell-based; conditions: CHO cells expressing human H3 receptors
Description: The potency of compounds of the invention as H3 receptor antagonists can be assessed by measuring the blockade of (R)-alpha-methylhistamine-mediated cAMP production utilizing a LANCE Ultra cAMP kit (PE #TRF0263) in CHO cells expressing human H3 receptors (GenBank: BC096840; Strausberg R L et al, Proc. Natl. Acad. Sci. U.S.A. 99(26), 16899-16903; 2002).
2. Preparation of assay plate: Different concentrations of the compounds of the invention (0.01-1000 nM), H3 positive controls and cAMP calibration standards; […] Forskolin (CALBIOCHEM #344270); 5 μM (R)-alpha-methylhistamine (H3 receptor agonist); 1% DMSO (SIGMA #D2650); total volume: 95 nl.
3. Preparation of the cell solution: Collect cells with stimulation buffer, final density: 100,000 cells/ml.
4. Reaction: (a) transfer 10 μl of cell solution to assay plate, (b) centrifuge at 600 rpm for 3 min and incubate 50 min at room temperature, (c) add 5 μL 4× Eu-cAMP tracer solution (60 μl Eu-cAMP tracer stock solution+2.94 ml cAMP detection buffer) and 5 μL 4× ULight™-anti-cAMP solution (20 μl […]+2.98 ml cAMP detection buffer) to assay plate.
5. Reading plate on EnVision: flash energy: 100%; excitation filter: 111 UV2 320; emission filter: 203 (Eu 615) and 205 (APC 665); number of laser flashes: 20; window: 100 μs; laser mirror module: 445 or 446; laser cycle: 16,600 μs.
6. Data analysis by GraphPad Prism: log (compound concentration) vs. response; variable slope.

[2] = system: tele-methylhistamine; assay: Effects on brain tele-methylhistamine levels; assay type: in vivo, rat; conditions: male Sprague-Dawley rats, oral, frontal cortex
Description: Compounds of the invention were dissolved in 20% 2-hydroxyl-beta-cyclodextran (HBC) and then sonicated briefly until there is little or no suspension in the solution. Animals (male Sprague-Dawley rats at the age of 8 weeks) were orally dosed with test compounds I hour or other longer time points before they were sacrificed using CO2.
A cardiac puncture was performed to collect blood sample from the cardiac cavity. The collected blood was immediately mixed with EDTA-K2 20 μl/ml to avoid blood clotting. The blood samples in tubes were then centrifuged (15 mim, 6000 rpm) and the plasma transferred to new tubes and then temporarily kept in dry ice until they were stored in a −70° C. freezer.
CSF collection: CSF samples were taken from the foramen magnum of the animal (using a #0.5 intravenous needle), and the CSF sample were kept in dry ice.
The rat brain were taken out of the skull and rinsed with ice-cold saline first. The frontal cortex was separated from the rest of the brain on top of a petri dish with ice underneath. The wet weight of the frontal cortex was weighed and recorded immediately. The frontal cortex sample was then kept in dry ice until they are transferred to a −70° C. freezer.
Bioanalytical Methods for Tele-Methyl Histamine and Compounds:
• Instrument: Agilent 6410, triple quadrupole mass spectrometer • Matrix: rat plasma, frontal cortex homogenate and cerebrospinal fluid (CSF) • Analyte: H3 compounds. • Internal standard: Dexamethasone HPLC Conditions Mobile Phase A: H2O—0.1% NH3.H2O: • Mobile phase B: MeOH-0.1% NH3.H2O • Column: Ultimate XB-C18 (2.1×50 mm, 5 μm) • Flow rate: 0.45 mL/min, temperature: 40° C. MS Conditions: • ESI: positive ion • MRM detection • Dexamethasone: [M+H]+m/z 393.3→373.2; CE: 4; Fragmentor: 110 Sample Preparation: Frontal Cortex:
the brain sample was homogenized for 2 min with 3 volumes (v/w) of homogenizing solution (EtOH:PBS=85:15), and then centrifuged at 12,000 rpm for 5 min. […]

human H3 receptors, sequence (Q9Y5N1 whole entry): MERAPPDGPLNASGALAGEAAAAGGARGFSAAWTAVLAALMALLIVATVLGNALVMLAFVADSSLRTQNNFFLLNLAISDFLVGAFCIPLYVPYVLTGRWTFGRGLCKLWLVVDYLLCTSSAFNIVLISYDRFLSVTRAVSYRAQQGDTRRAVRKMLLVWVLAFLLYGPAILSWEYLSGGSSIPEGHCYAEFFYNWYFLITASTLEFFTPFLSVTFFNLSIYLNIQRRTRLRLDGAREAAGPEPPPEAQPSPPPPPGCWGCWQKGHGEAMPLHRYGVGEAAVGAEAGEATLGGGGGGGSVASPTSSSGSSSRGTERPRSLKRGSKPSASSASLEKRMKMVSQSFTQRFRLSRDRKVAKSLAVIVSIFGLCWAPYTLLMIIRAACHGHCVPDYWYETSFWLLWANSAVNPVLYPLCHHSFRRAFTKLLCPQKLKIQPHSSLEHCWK

Row | Structure (SMILES) | Ki [1] | % change in tele-methylhistamine brain levels for 10 mg/kg @ 1 h [2]
1 | O=C(OC1CCN(c2ccc(=O)[nH]n2)CC1)N1CCN(C2CCC2)CC1 [Example 1.1, 1-(6-oxo-1,6-dihydropyridazin-3-yl)piperidin-4-yl 4-cyclobutylpiperazine-1-carboxylate] | 1.3 nM | 72%
2 | CC(C)N1CCN(C(=O)OC2CCN(c3ccc(=O)n(C)n3)CC2)CC1 [Example 1.2, 1-(1-methyl-6-oxo-1,6-dihydropyridazin-3-yl)piperidin-4-yl 4-isopropylpiperazine-1-carboxylate] | 2.4 nM | 138%
3 | CC(C)N1CCN(C(=O)OC2CCN(c3ccc(=O)[nH]n3)CC2)CC1 [Example 1.3, 1-(6-oxo-1,6-dihydropyridazin-3-yl)piperidin-4-yl 4-isopropylpiperazine-1-carboxylate] | 1.2 nM | 115%

From patent US9034874B2, “Carbamate/urea derivatives” (NOVARTIS AG, priority 2012, dated 2015)
